Experimental data: patent US20250269072A1, “PROCESSES FOR PREPARING RADIOLABELLED CONJUGATES” (CENTENARY INSTITUTE OF CANCER MEDICINE AND CELL BIOLOGY, priority 2021, published 2025)
Values joined by “and” are separate entries in the source; they are usually repeats but may differ in a detail not shown here. Identical values can stand only once.

Legend:
[1] = Human studies: radiation dosimetry of subjects 1-4 (Olinda/EXM); assay type: in vivo
Method: For subjects 1-4, radiation dosimetry was calculated using Olinda/EXM based on the organ biodistribution discussed above.
Tables 7-10 show the estimate for radiation dosimetry for subjects 1˜4 of 200 MBq of ^68Ga NODAGA GSAO for individual organs and for the whole body in mSv/MBq (EDE cont.=effective dose equivalent contribution, ED Cont.=effective dose contribution). The estimated whole-body dose from the one (1) low dose CT and two (2) ultra-low dose CTs was 9.2 mSv.

[2] = In-human study of ^68Ga-CDI: safety and tolerability; assay type: in vivo; details: 5 subjects
From the text: This open label, single arm interventional study recruited subjects with histologically or cytologically confirmed solid malignancy with at least one measurable lesion >2 cm. The study was approved by the South Eastern Sydney Local Health District Human Research Ethics committee (2019/ETH04821) and all subjects signed an informed consent form. […] Within 28 days of undergoing the study subjects were screened to ensure they met inclusion and exclusion criteria and written consent obtained. Although not an inclusion criteria for participation in this study, all patients also underwent an FDG PET CT between 3-11 days prior to CDI PET CT as part of standard of care.
Subjects were encouraged to be well orally hydrated prior to ^68Ga-CDI administration, otherwise there was no preparation required. Two intravenous cannulas were placed (one for administration of ^68Ga-CDI and the other blood sampling during the study). Immediately prior to ^68Ga-CDI administration clinical assessment of participants was performed, vital signs (blood pressure, heart rate, respiratory rate, arterial oxygen saturation and temperature) measured and a 12-lead electrocardiogram (ECG) obtained and QTc calculated according to Bazett's formula to confirm eligibility. ^68Ga-CDI was administered as an intravenous bolus.
During and immediately following completion of the scanning protocol, subjects were clinically assessed for adverse reactions and vital signs measured. Blood was collected for venous radioactivity measurements at 1, 2 and 3 hours following ^68Ga-CDI administration. Subjects were asked to void between 1.5 to 2 h and 2.75 to 3 h after ^68Ga-CDI administration, urine collected, the volume measured, and an aliquot counted in a gamma counter to determine activity concentration. Following completion of the scanning protocol, ECG was recorded, and blood collected for biochemical and haematological assessment.
On the day following the ^68Ga-CDI PET CT subjects were clinically assessed for adverse reactions, vital signs, ECG obtained, and blood collected for biochemical and haematological assessment. […]

[3] = Red Marrow, subjects 1-4 = the 7th table-the 10th table
[4] = Skin, subjects 1-4 = the 7th table-the 10th table
[5] = Small Intestine, subjects 1-4 = the 7th table-the 10th table
[6] = Spleen, subjects 1-4 = the 7th table-the 10th table
[7] = Stomach Wall, subjects 1-4 = the 7th table-the 10th table
[8] = Testes, subject 1 = the 7th table, subject 3 = the 9th table
[9] = Thymus, subjects 1-4 = the 7th table-the 10th table
[10] = Thyroid, subjects 1-4 = the 7th table-the 10th table
[11] = Total Body, subjects 1-4 = the 7th table-the 10th table
[12] = ULI Wall, subjects 1-4 = the 7th table-the 10th table
[13] = Uterus, subjects 1-4 = the 7th table-the 10th table

**Q.** What does the source list for O=C(O)CNC(=O)[C@H](CSCC(=O)Nc1ccc([As](O)O)cc1)NC(=O)CC[C@H](NC(=O)CCC1C(=O)[O][68Ga]2[O]C(=O)CN3CCN(CCN1CC3)CC(=O)[O]2)C(=O)O (stereo partly drawn) [^68Ga-NODAGA-GSAO]?
**A.** Beta dose [1, 3]: 5.39E−03 mSv/MBq and 6.61E−03 mSv/MBq and 4.29E−03 mSv/MBq and 5.25E−03 mSv/MBq; ED Cont. [1, 3]: 1.09E−03 mSv/MBq and 1.30E−03 mSv/MBq and 8.70E−04 mSv/MBq and 1.13E−03 mSv/MBq; EDE Cont. [1, 3]: 1.09E−03 mSv/MBq and 1.30E−03 mSv/MBq and 8.70E−04 mSv/MBq and 1.13E−03 mSv/MBq; Photon dose [1, 3]: 3.70E−03 mSv/MBq and 4.24E−03 mSv/MBq and 2.96E−03 mSv/MBq and 4.13E−03 mSv/MBq; Total dose [1, 3]: 9.08E−03 mSv/MBq and 1.08E−02 mSv/MBq and 7.25E−03 mSv/MBq and 9.38E−03 mSv/MBq; Alpha dose [1, 4]: 0.00E+00 mSv/MBq; ED Cont. [1, 4]: 5.17E−05 mSv/MBq and 7.01E−05 mSv/MBq and 3.66E−05 mSv/MBq and 5.79E−05 mSv/MBq; EDE Cont. [1, 4]: 0.00E+00 mSv/MBq; Photon dose [1, 4]: 2.03E−03 mSv/MBq and 2.32E−03 mSv/MBq and 1.63E−03 mSv/MBq and 2.26E−03 mSv/MBq; Total dose [1, 4]: 5.17E−03 mSv/MBq and 7.01E−03 mSv/MBq and 3.66E−03 mSv/MBq and 5.79E−03 mSv/MBq; Alpha dose [1, 5]: 0.00E+00 mSv/MBq; ED Cont. [1, 5]: 7.19E−05 mSv/MBq and 9.14E−05 mSv/MBq and 6.51E−05 mSv/MBq and 4.60E−05 mSv/MBq; EDE Cont. [1, 5]: 0.00E+00 mSv/MBq; Photon dose [1, 5]: 5.21E−03 mSv/MBq and 5.57E−03 mSv/MBq and 4.29E−03 mSv/MBq and 5.67E−03 mSv/MBq; Total dose [1, 5]: 1.44E−02 mSv/MBq and 1.83E−02 mSv/MBq and 1.30E−02 mSv/MBq and 9.20E−03 mSv/MBq; Alpha dose [1, 6]: 0.00E+00 mSv/MBq; Beta dose [1, 6]: 1.27E−02 mSv/MBq and 1.48E−02 mSv/MBq and 1.09E−02 mSv/MBq and 1.18E−02 mSv/MBq; ED Cont. [1, 6]: 8.65E−05 mSv/MBq and 1.01E−04 mSv/MBq and 7.35E−05 mSv/MBq and 8.27E−05 mSv/MBq; Photon dose [1, 6]: 4.57E−03 mSv/MBq and 5.34E−03 mSv/MBq and 3.83E−03 mSv/MBq and 4.70E−03 mSv/MBq; Total dose [1, 6]: 1.73E−02 mSv/MBq and 2.02E−02 mSv/MBq and 1.47E−02 mSv/MBq and 1.65E−02 mSv/MBq; Alpha dose [1, 7]: 0.00E+00 mSv/MBq; EDE Cont. [1, 7]: 0.00E+00 mSv/MBq; Photon dose [1, 7]: 3.93E−03 mSv/MBq and 4.97E−03 mSv/MBq and 3.12E−03 mSv/MBq and 4.01E−03 mSv/MBq; Alpha dose [1, 8]: 0.00E+00 mSv/MBq; Beta dose [1, 8]: 1.37E−02 mSv/MBq and 1.22E−02 mSv/MBq; ED Cont. [1, 8]: 3.65E−03 mSv/MBq and 3.27E−03 mSv/MBq; EDE Cont. [1, 8]: 4.56E−03 mSv/MBq and 4.09E−03 mSv/MBq; Photon dose [1, 8]: 4.58E−03 mSv/MBq and 4.18E−03 mSv/MBq; Total dose [1, 8]: 1.83E−02 mSv/MBq and 1.64E−02 mSv/MBq; Alpha dose [1, 9]: 0.00E+00 mSv/MBq; ED Cont. [1, 9]: 3.06E−05 mSv/MBq and 4.18E−05 mSv/MBq and 2.16E−05 mSv/MBq and 3.38E−05 mSv/MBq; EDE Cont. [1, 9]: 0.00E+00 mSv/MBq; Photon dose [1, 9]: 2.96E−03 mSv/MBq and 3.66E−03 mSv/MBq and 2.30E−03 mSv/MBq and 3.23E−03 mSv/MBq; Total dose [1, 9]: 6.11E−03 mSv/MBq and 8.36E−03 mSv/MBq and 4.32E−03 mSv/MBq and 6.76E−03 mSv/MBq; Alpha dose [1, 10]: 0.00E+00 mSv/MBq; Beta dose [1, 10]: 1.12E−02 mSv/MBq and 1.19E−02 mSv/MBq and 8.46E−03 mSv/MBq and 1.34E−02 mSv/MBq; ED Cont. [1, 10]: 7.05E−04 mSv/MBq and 7.59E−04 mSv/MBq and 5.42E−04 mSv/MBq and 8.18E−04 mSv/MBq; EDE Cont. [1, 10]: 4.23E−04 mSv/MBq and 4.55E−04 mSv/MBq and 3.25E−04 mSv/MBq and 4.91E−04 mSv/MBq; Photon dose [1, 10]: 2.86E−03 mSv/MBq and 3.24E−03 mSv/MBq and 2.38E−03 mSv/MBq and 3.00E−03 mSv/MBq; Total dose [1, 10]: 1.41E−02 mSv/MBq and 1.52E−02 mSv/MBq and 1.08E−02 mSv/MBq and 1.64E−02 mSv/MBq; Alpha dose [1, 11]: 0.00E+00 mSv/MBq; Beta dose [1, 11]: 6.33E−03 mSv/MBq and 7.76E−03 mSv/MBq and 4.94E−03 mSv/MBq and 6.96E−03 mSv/MBq; ED Cont. [1, 11]: 0.00E+00 mSv/MBq; EDE Cont. [1, 11]: 0.00E+00 mSv/MBq; Photon dose [1, 11]: 3.44E−03 mSv/MBq and 3.84E−03 mSv/MBq and 2.77E−03 mSv/MBq and 3.92E−03 mSv/MBq; Total dose [1, 11]: 9.78E−03 mSv/MBq and 1.16E−02 mSv/MBq and 7.71E−03 mSv/MBq and 1.09E−02 mSv/MBq; Alpha dose [1, 12]: 0.00E+00 mSv/MBq; EDE Cont. [1, 12]: 0.00E+00 mSv/MBq; Photon dose [1, 12]: 5.20E−03 mSv/MBq and 6.02E−03 mSv/MBq and 4.00E−03 mSv/MBq and 5.50E−03 mSv/MBq; Alpha dose ([1]; Urinary Bladder Wall, subjects 1-4 = the 7th table-the 10th table): 0.00E+00 mSv/MBq; Alpha dose [1, 13]: 0.00E+00 mSv/MBq; Photon dose [1, 13]: 1.06E−02 mSv/MBq and 8.98E−03 mSv/MBq and 8.36E−03 mSv/MBq and 1.51E−02 mSv/MBq; estimated effective whole-body dose ([1]; administered activity of 200 MBq): 4.3-6.8 mSv; estimated effective whole-body dose for the protocol ([1]; first in human protocol incl. CTs, subjects 1-4): 13.5-15.9 mSv; effective whole-body dose ([1]; range over subjects 1-4): 2.16×10^−2 to 3.38×10^−2 mSv/MBq; overall estimated radiation dose ([1]; subject 1): 14.5 mSv; overall estimated radiation dose ([1]; subject 2): 13.9 mSv; overall estimated radiation dose ([1]; subject 3): 13.5 mSv; overall estimated radiation dose ([1]; subject 4): 15.9 mSv; Effective Dose ([1]; whole body, subjects 1-4 = the 7th table-the 10th table): 2.63E−02 mSv/MBq and 2.35E−02 mSv/MBq and 2.16E−02 mSv/MBq and 3.38E−02 mSv/MBq; adverse or pharmacologic effects [2]: no adverse or clinically detectable pharmacologic effects; vital signs, laboratory studies, electrocardiograms [2]: No significant changes; tolerability ([2]; 205±4.1 MBq i.v.): well tolerated
